From article PMC12452633 (RSC Medicinal Chemistry, 2025)

Tests used:
Ku70–Ku80 = Ku70–Ku80 (Homo sapiens, UniProt P12956+P13010); assay: nano Differential Scanning Fluorometry; format: binding; conditions: 0 to 25 μM ligand
Ku70/80 = Ku70/80 (Homo sapiens, UniProt P12956+P13010); assay: Ku–DNA binding EMSA; conditions: for IC50: Ku70/80 (IC50), purified Ku70/80, direct DNA binding activity by EMSA
DNA-PK = DNA-PK (Homo sapiens, UniProt P12956+P13010); assay: DNA-PK phosphoryl-transferase catalytic; format: biochemical
Ku70/80 protein = conditions: gel-based TSA; cited from earlier work
p53 phosphorylation = conditions: through p53 phosphorylation, ATM pathway activation; cited from earlier work
NHEJ = conditions: earlier report; cited from earlier work

Ku70/80, sequence (P12956 whole entry): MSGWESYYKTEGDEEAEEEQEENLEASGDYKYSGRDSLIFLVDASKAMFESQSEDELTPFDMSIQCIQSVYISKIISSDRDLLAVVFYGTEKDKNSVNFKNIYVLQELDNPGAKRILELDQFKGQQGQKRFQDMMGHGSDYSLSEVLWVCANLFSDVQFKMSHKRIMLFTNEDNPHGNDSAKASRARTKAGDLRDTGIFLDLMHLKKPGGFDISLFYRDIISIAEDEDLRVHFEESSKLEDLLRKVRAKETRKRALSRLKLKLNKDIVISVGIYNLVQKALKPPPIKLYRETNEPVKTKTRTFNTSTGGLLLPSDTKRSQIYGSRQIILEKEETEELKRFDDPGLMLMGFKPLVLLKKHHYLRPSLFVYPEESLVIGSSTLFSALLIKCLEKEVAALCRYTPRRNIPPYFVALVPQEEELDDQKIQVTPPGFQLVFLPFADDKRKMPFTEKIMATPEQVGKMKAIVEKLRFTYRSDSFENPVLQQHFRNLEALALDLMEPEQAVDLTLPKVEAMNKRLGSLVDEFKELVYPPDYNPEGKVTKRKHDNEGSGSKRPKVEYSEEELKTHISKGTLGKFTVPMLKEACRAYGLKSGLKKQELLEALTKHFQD
Ku70/80, sequence (P13010 whole entry): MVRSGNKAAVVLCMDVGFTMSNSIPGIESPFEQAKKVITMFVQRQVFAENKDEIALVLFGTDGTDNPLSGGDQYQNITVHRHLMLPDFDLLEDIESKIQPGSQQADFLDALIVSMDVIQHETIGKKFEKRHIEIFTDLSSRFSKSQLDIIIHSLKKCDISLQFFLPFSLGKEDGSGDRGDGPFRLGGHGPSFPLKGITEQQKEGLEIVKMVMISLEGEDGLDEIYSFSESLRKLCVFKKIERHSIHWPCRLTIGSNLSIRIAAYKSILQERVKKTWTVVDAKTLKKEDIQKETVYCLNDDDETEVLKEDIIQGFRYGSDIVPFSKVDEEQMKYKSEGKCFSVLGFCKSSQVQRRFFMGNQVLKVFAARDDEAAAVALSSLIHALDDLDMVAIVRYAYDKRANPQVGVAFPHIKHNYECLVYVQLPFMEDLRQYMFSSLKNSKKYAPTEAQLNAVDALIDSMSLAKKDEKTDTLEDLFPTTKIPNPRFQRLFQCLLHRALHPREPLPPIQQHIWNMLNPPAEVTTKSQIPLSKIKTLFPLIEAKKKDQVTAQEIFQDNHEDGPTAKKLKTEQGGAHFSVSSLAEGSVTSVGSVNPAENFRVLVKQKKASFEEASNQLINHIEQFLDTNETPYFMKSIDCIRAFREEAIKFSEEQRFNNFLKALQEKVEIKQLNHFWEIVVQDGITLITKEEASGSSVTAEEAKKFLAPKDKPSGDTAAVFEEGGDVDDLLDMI
DNA-PK, sequence (P12956 whole entry): as the sequence (P12956 whole entry) above
DNA-PK, sequence (P13010 whole entry): as the sequence (P13010 whole entry) above
Ku70–Ku80, sequence (P12956 whole entry): as the sequence (P12956 whole entry) above
Ku70–Ku80, sequence (P13010 whole entry): as the sequence (P13010 whole entry) above

IC50 (Ku70/80) [µM] | IC50 (DNA-PK) [µM] | Compound | other results
– | – | COc1cccc(NC(=O)c2cc(-c3ccc(CC4C(=O)N(c5cccc(C(=O)O)c5)N=C4C)o3)ccc2Cl)c1 (stereo not drawn) [53 (149), 3-(4-((5-(4-chloro-3-((3-methoxyphenyl)carbamoyl)phenyl)furan-2-yl)methyl)-3-methyl-5-oxo-4,5-dihydro-1H-pyrazol-1-yl)benzoic acid] | shift in thermal stability (qualitative) (Ku70–Ku80): concentration-dependent induction of a shift in thermal stability
20.7 ± 1.84 | 1.53 ± 0.22 | CC1=NN(c2ccc(S(N)(=O)=O)cc2)C(=O)/C1=C\c1ccc(-c2ccc(Cl)c(C(=O)NCc3ccc(F)cc3)c2)o1 [Compound 69, (Z)-2-Chloro-N-(4-fluorobenzyl)-5-(5-((3-methyl-5-oxo-1-(4-sulfamoylphenyl)-1,5-dihydro-4H-pyrazol-4-ylidene)methyl)furan-2-yl)benzamide] | –
7.86 ± 4.4 | 0.57 ± 0.12 | COc1cccc(NC(=O)c2cc(-c3ccc(CC4C(=O)N(c5ccc(S(N)(=O)=O)cc5)N=C4C)o3)ccc2Cl)c1 (stereo not drawn) [Compound 70, 2-chloro-N-(3-methoxyphenyl)-5-(5-((3-methyl-5-oxo-1-(4-sulfamoylphenyl)-4,5-dihydro-1H-pyrazol-4-yl)methyl)furan-2-yl)benzamide] | increase in Ku inhibitory activity (Ku70/80; compared with compound 67): 1–2.5 fold; increase in DNA-PK activity (DNA-PK; compared with compound 67): 1–2.5 fold
3.51 ± 1.81 | 0.98 ± 0.52 | COc1cccc(NC(=O)c2cc(-c3ccc(/C=C4\C(=O)N(c5cccc(-c6nnn[nH]6)c5)N=C4C)o3)ccc2Cl)c1 [Compound 75, (Z)-5-(5-((1-(3-(1H-tetrazol-5-yl)phenyl)-3-methyl-5-oxo-1,5-dihydro-4H-pyrazol-4-ylidene)methyl)furan-2-yl)-2-chloro-N-(3-methoxyphenyl)benzamide] | –
– | – | COc1cccc(NC(=O)c2cc(-c3ccc(CC4C(=O)N(c5cccc(-c6nnn[nH]6)c5)N=C4C)o3)ccc2Cl)c1 (stereo not drawn) [Compound 76 (245), 5-(5-((1-(3-(1H-tetrazol-5-yl)phenyl)-3-methyl-5-oxo-4,5-dihydro-1H-pyrazol-4-yl)methyl)furan-2-yl)-2-chloro-N-(3-methoxyphenyl)benzamide] | direct interaction with Ku70/80 protein (Ku70/80 protein): directly interacts with the Ku70/80 protein; potentiation of cellular effects of bleomycin and IR (p53 phosphorylation): potentiates the cellular effects of bleomycin and IR; effect in CRISPR gene-editing model (NHEJ): inhibiting NHEJ and activating homologous recombination to increase the efficiency of gene insertion
